Columns and labels:
Format in all cases: in vivo
[1] = tested on: buckhorn plantain, Plantago lanceolata L. (PLALA); assay: Postemergent weed control field study, Pennsylvania 2004, PLALA; settings: g ai/Ha: penoxsulam 35, imazaquin 104, bispyribac-sodium 75, trifloxysulfuron-sodium 9.2, metsulfuron-methyl 10.4; for Percent Weed Control PLALA 29DAA: 29 Days After Application; for Percent Weed Control PLALA 56DAA: 56 Days After Application
Excerpt: (§1) The ALS inhibiting herbicides are useful in controlling broadleaf weeds and sedges in turfgrass. They are particularly effective against most important weeds in this application, viz., white clover, Trifolium repens L. (TRFRE); buckhorn plantain, Plantago lanceolata L. (PLALA); dandelion, Taraxacum officinale (TAROF); broadleaf plantain, Plantago major L. (PLAMA); ground ivy, Glechoma hederacea L. (GLEHE); common lespedeza, Lespedeza striata (LESST); pennywort (dollarweed), Hydrocotyle spp (HYDSS); Virginia buttonweed, Diodia virginiana L. (DIQVI) English daisy, Bellis perennis L. (BELPE); annual bluegrass, Poa annua (POANN); and yellow nutsedge, Cypres esculentus L. (CYPES).
(§2) Field studies were conducted in established turfgrass sites containing a natural population of target broadleaf weeds. Replicated trials, containing a minimum of three replications and having individual plots ranging in size from 25 to 50 ft. sq (2.3 to 4.6 square meters), were initiated in the late spring when turf and weeds were actively growing. […] Applications were made in the early morning when dew was present. Natural rainfall and supplemental irrigation were used to maintain healthy turf and active weed growth throughout the study period. Control of each weed species in the study site was made at approximately 2, 4 and 8 weeks after treatment. Control was determined visually by comparing treated and untreated weeds and scored on a 0 to 100 percent scale where 0 corresponds to no control and 100 corresponds to complete kill.

perennial ryegrass [2] = assay: Perennial ryegrass turf quality field study, Pennsylvania 2004; settings: in vivo
Description: (§3) Turf tolerance studies were conducted in monoculture stands of perennial ryegrass and tall fescue. Replicated trials, containing a minimum of three replications and having individual plots ranging in size from 25 to 50 ft. sq (2.3 to 4.6 square meters), were initiated in the late spring when turf was actively growing. […] Natural rainfall and supplemental irrigation, fertilizer, fungicides and insecticides were used to maintain healthy turf throughout the study period. Turf tolerance evaluations were made weekly for 8 weeks after application. Evaluations compared treated and untreated plot areas and consisted of one or all of the following evaluations: 1) visual estimate of turf injury made on a 0 to 10 scale with 0 indicating no visible injury symptoms, 10 being dead turf and 3 or less being commercially acceptable; 2) visual estimate of turf color made on a 0 to 10 scale with 0 being brown to dead turf, 10 being a lush green turf of highest quality and 6.5 being commercially acceptable; 3) visual estimate of turf density made on a 0 to 100 scale with 0 being bare ground, 100 being a thick solid stand of highest quality and 90 percent density being commercially acceptable; 4) visual estimate of turf quality made on a 0 to 10 scale with 0 being brown to dead turf, 10 being a lush green turf of highest quality and 6.5 being commercially acceptable.

[3] = tested on: annual bluegrass, Poa annua (POANN); assay: Postemergent weed control field study, Pennsylvania 2004, POANN; settings: g ai/Ha: penoxsulam 35, imazaquin 104, bispyribac-sodium 75, trifloxysulfuron-sodium 9.2, metsulfuron-methyl 10.4; for Percent Weed Control POANN 29DAA: 29 Days After Application; for Percent Weed Control POANN 56DAA: 56 Days After Application
Excerpt: as §1
(§4) Field studies were conducted in established turfgrass sites containing a natural population of target broadleaf weeds. Replicated trials, containing a minimum of three replications and having individual plots ranging in size from 25 to 50 ft. sq (2.3 to 4.6 square meters), were initiated in the late spring when turf and weeds were actively growing. Granule treatments were uniformly applied to individual plots using a common hand-shaker method. Applications were made in the early morning when dew was present. Natural rainfall and supplemental irrigation were used to maintain healthy turf and active weed growth throughout the study period. Control of each weed species in the study site was made at approximately 2, 4 and 8 weeks after treatment. Control was determined visually by comparing treated and untreated weeds and scored on a 0 to 100 percent scale where 0 corresponds to no control and 100 corresponds to complete kill.

[4] = tested on: white clover, Trifolium repens L. (TRFRE); assay: Postemergent weed control field study, Pennsylvania 2004, TRFRE; settings: g ai/Ha: penoxsulam 35, imazaquin 104, bispyribac-sodium 75, trifloxysulfuron-sodium 9.2, metsulfuron-methyl 10.4; for Percent Weed Control TRFRE 29DAA: 29 Days After Application; for Percent Weed Control TRFRE 56DAA: 56 Days After Application
Excerpt: as §1, §2

perennial ryegrass [5] = assay: Turf tolerance field study, perennial ryegrass, Indiana 2004; settings: 21 Days After Treatment, g ai/Ha: penoxsulam 35, imazaquin 104, bispyribac-sodium 75, trifloxysulfuron-sodium 9.2, metsulfuron-methyl 10.4; for Color: 0 = brown to dead turf, 10 = lush green; for Injury: 0 = no visible injury, 10 = dead turf
Description: as §3

tall fescue = assay: Turf tolerance field study, tall fescue, Indiana 2004; settings: 14 Days After Treatment, g ai/Ha: penoxsulam 35, imazaquin 104, bispyribac-sodium 75, trifloxysulfuron-sodium 9.2, metsulfuron-methyl 10.4; for Color: 0 = brown to dead turf, 10 = lush green; for Injury: 0 = no visible injury, 10 = dead turf
Description: as §3

[6] = tested on: dandelion, Taraxacum officinale (TAROF); assay: Postemergent weed control field study, Pennsylvania 2004, TAROF; settings: Liquid formulation, g ai/Ha: penoxsulam 35, imazaquin 104, bispyribac-sodium 75, trifloxysulfuron-sodium 9.2, metsulfuron-methyl 10.4; for Percent Weed Control TAROF 29DAA: 29 Days After Application; for Percent Weed Control TAROF 56DAA: 56 Days After Application
[7] = tested on: dandelion, Taraxacum officinale (TAROF); assay: as above; settings: Granule formulation, g ai/Ha: penoxsulam 35, imazaquin 104, bispyribac-sodium 75, trifloxysulfuron-sodium 9.2, metsulfuron-methyl 10.4; for Percent Weed Control TAROF 29DAA: 29 Days After Application; for Percent Weed Control TAROF 56DAA: 56 Days After Application
Excerpt: as §1, §4

Structure (SMILES)	Percent Weed Control PLALA 29DAA ([1]; Granule formulation)	Percent Weed Control PLALA 56DAA ([1]; Granule formulation)	Percent Weed Control PLALA 29DAA ([1]; Liquid formulation)	Percent Weed Control PLALA 56DAA ([1]; Liquid formulation)	Turf Quality 36 DAA (perennial ryegrass [2])	Percent Weed Control POANN 29DAA ([3]; Granule formulation)	Percent Weed Control POANN 56DAA ([3]; Granule formulation)	Percent Weed Control POANN 29DAA ([3]; Liquid formulation)	Percent Weed Control POANN 56DAA ([3]; Liquid formulation)	Percent Weed Control TRFRE 29DAA ([4]; Granule formulation)	Percent Weed Control TRFRE 56DAA ([4]; Granule formulation)	Percent Weed Control TRFRE 29DAA ([4]; Liquid formulation)	Percent Weed Control TRFRE 56DAA ([4]; Liquid formulation)	Color (perennial ryegrass [5]; Granule formulation)	Injury (perennial ryegrass [5]; Granule formulation)	Color (perennial ryegrass [5]; Liquid formulation)	Injury (perennial ryegrass [5]; Liquid formulation)	Color (tall fescue; Granule formulation)	Injury (tall fescue; Granule formulation)	Color (tall fescue; Liquid formulation)	also measured
COC(=O)c1ccccc1S(=O)(=O)NC(=O)Nc1nc(C)nc(OC)n1 [Metsulfuron-methyl, metsulfuron-methyl]	58.3%	85.0%	97.7%	78.9%	8.3 0 to 10 scale	32.2%	31.1%	39.2%	17.5%	93.9%	93.9%	95.8%	100.0%	6.5 0-10 Scale	4.5 0-10 Scale	6.0 0-10 Scale	6.0 0-10 Scale	8.8 0-10 Scale	0.8 0-10 Scale	6.8 0-10 Scale	Injury (tall fescue; Liquid formulation): 4.3 0-10 Scale; Percent Weed Control TAROF 29DAA [6]: 99.1%; Percent Weed Control TAROF 56DAA [6]: 97.4%; Percent Weed Control TAROF 29DAA [7]: 87.2%; Percent Weed Control TAROF 56DAA [7]: 67.2%
COc1cnc(OC)n2nc(NS(=O)(=O)c3c(OCC(F)F)cccc3C(F)(F)F)nc12 [Penoxsulam, penoxsulam]	73.3%	43.3%	41.7%	70.6%	10.0 0 to 10 scale	0.0%	13.7%	4.4%	31.1%	98.3%	83.9%	100.0%	98.7%	8.3 0-10 Scale	1.5 0-10 Scale	6.5 0-10 Scale	4.3 0-10 Scale	9.0 0-10 Scale	0.3 0-10 Scale	7.8 0-10 Scale	Injury (tall fescue; Liquid formulation): 3.0 0-10 Scale; Percent Weed Control TAROF 29DAA [6]: 44.4%; Percent Weed Control TAROF 56DAA [6]: 11.1%; Percent Weed Control TAROF 29DAA [7]: 57.8%; Percent Weed Control TAROF 56DAA [7]: 34.4%
